Test results taken from patent US20150366884A1, “COMPOSITIONS AND METHODS FOR CANCER THERAPY” (UNIVERSITY OF IOWA RESEARCH FOUNDATION, priority 2013, published 2015).
Read-outs that look alike come from different tables or passages of the source.

Columns and labels:
melanoma tumor = test: Treatment of melanoma tumor bearing animals; format: in vivo
[1] = tested on: MeWo human melanoma cells; test: MTT viability analysis, TPP chain length and treatment time, MeWo cells; settings: for cytotoxicity at 0.5 µM: Homo sapiens, MeWo, read-out: decrease in MeWo cell viability
Experimental: (§1) A375 human melanoma (catalog no. CRL1619™) cells were purchased from ATCC®. All cells were cultured in 150 cm^2 culture flasks at 37° C. in a humidified 5% CO2 incubator and detached with 0.25% trypsin-EDTA (GIBCO®, catalog no. 25200). A375 cells were cultured in high glucose DMEM medium (GIBCO®, catalog no. 11965) supplemented with 1% PenStrep (GIBCO®, catalog no. 15140) and 10% FBS (GIBCO®, catalog no. 26140). MeWo cells were cultured in 1:1 DMEM:F12 (VENDOR INFO) medium supplemented with 1% PenStrep and 10% FBS. Melanocytes were cultured in Ham's F10 medium (GIBCO®, catalog no 11550) supplemented with 7% horse serum (Hyclone®, catalog no. SH30074.03) and 50 ng/mL 12-myristate 13-acetate (TPA) (Sigma®, catalog no. P-8139). Experiments were performed with cells at or below passage twenty.
(§2) MTT viability analysis of melanoma cells versus non-malignant melanocyte cells looking at the effect of variation in TPP molecular chain length and treatment time. A375 human melanoma cells in (A), MeWo human melanoma cells in (B), and non-malignant melanocyte cells in (C) were treated with TPP derivatives at a 0.5 μM concentration for 24 h, 48 h, and 72 h.

[2] = tested on: A375 human melanoma cells; test: MTT viability analysis, TPP chain length and treatment time, A375 cells; settings: for cytotoxicity at 0.5 µM: Homo sapiens, read-out: decrease in A375 cell viability
Experimental: as §1, §2

[3] = tested on: non-malignant melanocyte cells; test: MTT viability analysis, TPP chain length and treatment time, melanocytes; settings: 0.5 μM
Experimental: as §1, §2

Compound: CCCCCCCCCC[P+](c1ccccc1)(c1ccccc1)c1ccccc1 [decyl-TPP, decyltriphenylphosphonium]
- tolerability (melanoma tumor): well-tolerated
- decrease in MeWo cell viability ([1]; 0.5 μM, 24 h): no significant decrease
- cytotoxicity at 0.5 µM ([1]; 48 h): > 30%
- cytotoxicity at 0.5 µM ([1]; 72 h): > 30%
- decrease in A375 cell viability ([2]; 0.5 μM, 24 h): no significant decrease
- cytotoxicity at 0.5 µM ([2]; A-375, 48 h): > 30%
- cytotoxicity at 0.5 µM ([2]; A-375, 72 h): > 30%
- decrease in non-malignant melanocyte cell viability ([3]; 24 h): No significant decrease
- decrease in non-malignant melanocyte cell viability ([3]; 48 h): No significant decrease
- decrease in melanocyte viability ([3]; 72 h): not observed
